Results: ChEMBL document CHEMBL1201862, “PubChem BioAssay data set” (2004)
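A five-concentration, 48-hour dose response in 96-well plates underlies each endpoint, interpolated linearly between surrounding concentrations. At the GI50, growth is halved.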 Activity calls are given as the source filed them. No stated cut-off is given here; in the data, active = GI50 up to about 1.1 µM and inactive = higher.

Legend:
Assay in all cases: growth of human tumour cells (NCI), 48 h
[1] = tested on: SNB-19
[2] = tested on: HCT-116
[3] = tested on: SF-295
[4] = tested on: NCI-H460
[5] = tested on: XF498
[6] = tested on: SK-MEL-28
[7] = tested on: TK-10
[8] = tested on: NCI-H226
[9] = tested on: OVCAR-3
[10] = tested on: EKVX
[11] = tested on: NCI-H23
[12] = tested on: HCC 2998
[13] = tested on: RXF 393
[14] = tested on: U-251
[15] = tested on: DLD-1
[16] = tested on: DMS-114
[17] = tested on: UACC-62
[18] = tested on: HCT-15
[19] = tested on: HT-29
[20] = tested on: 786-0
[21] = tested on: SF-268
[22] = tested on: SK-MEL-2
[23] = tested on: ACHN
[24] = tested on: UACC-257
[25] = tested on: SF-539
[26] = tested on: OVCAR-8
[27] = tested on: A549
[28] = tested on: DMS-273
[29] = tested on: NCI-H522
[30] = tested on: SNB-78
[31] = tested on: M14
[32] = tested on: A498
[33] = tested on: SR
[34] = tested on: M19-MEL
[35] = tested on: CCRF-CEM
[36] = tested on: OVCAR-4
[37] = tested on: KM12
[38] = tested on: UO-31
[39] = tested on: HOP-62
[40] = tested on: HL-60
[41] = tested on: Malme-3M
[42] = tested on: K562
[43] = tested on: SK-MEL-5
[44] = tested on: MOLT-4
[45] = tested on: CAKI-1
[46] = tested on: SN12C
[47] = tested on: COLO 205
[48] = tested on: SNB-75
[49] = tested on: LOX IMVI
[50] = tested on: SK-OV-3
[51] = tested on: HOP-92
[52] = tested on: SW-620
[53] = tested on: RPMI-8226
[54] = tested on: LXFL 529
[55] = tested on: IGROV-1
[56] = tested on: OVCAR-5
[57] = tested on: KM-20L2
[58] = tested on: HOP-18
[59] = tested on: DU-145
[60] = tested on: MDA-MB-231
[61] = tested on: MDA-N
[62] = tested on: T47D
[63] = tested on: NCI/ADR-RES
[64] = tested on: MDA-MB-435
[65] = tested on: MCF7
[66] = tested on: PC-3
[67] = tested on: Hs-578T
[68] = tested on: BT-549

Measured: GI50

O=C1c2ccccc2C(=O)c2[nH]cnc21
48.5 µM: [18]
inactive: [1] 46.7 µM | [2] 45.4 µM | [3] 34.3 µM | [4] 32.1 µM | [5] 32.7 µM | [6] > 100 µM | [7] > 100 µM | [8] 29.8 µM | [9] 21.5 µM | [10] 91.2 µM | [11] 30.2 µM | [12] 48.4 µM | [13] > 100 µM | [14] 73.8 µM | [15] 27 µM | [16] 31.5 µM | [17] 31.9 µM | [19] 33.5 µM | [20] 75.9 µM | [21] 93.1 µM | [22] > 100 µM | [23] 66.7 µM | [24] 23 µM | [25] 61.2 µM | [26] 34.7 µM | [27] 55.3 µM | [28] 46.8 µM | [29] 34 µM | [30] 41.3 µM | [31] 41.4 µM | [32] > 100 µM | [33] 44 µM | [34] 20.4 µM | [35] 49.9 µM | [36] 76.6 µM | [37] 53.8 µM | [38] > 100 µM | [39] > 100 µM | [40] 23.6 µM | [41] 20 µM | [42] 78.7 µM | [43] 18.1 µM | [44] 49.5 µM | [45] > 100 µM | [46] 95.7 µM

C#CCN(N=O)C(=O)NC(CCCNC(=O)OCc1ccccc1)C(=O)OCc1ccccc1 (stereo not given)
76.4 µM: [18]
inactive: [1] > 100 µM | [47] 91.2 µM | [2] > 100 µM | [3] > 100 µM | [4] > 100 µM | [5] 18 µM | [6] 24.9 µM | [48] > 100 µM | [7] > 100 µM | [8] > 100 µM | [9] > 100 µM | [10] > 100 µM | [49] 52.4 µM | [11] > 100 µM | [12] > 100 µM | [50] > 100 µM | [13] 22.6 µM | [14] > 100 µM | [51] 30.9 µM | [15] 57.1 µM | [16] 67.3 µM | [17] > 100 µM | [19] > 100 µM | [20] > 100 µM | [21] 18.2 µM | [22] > 100 µM | [23] > 100 µM | [52] 55.8 µM | [24] 77.1 µM | [25] 75.7 µM | [26] 43.4 µM | [27] > 100 µM | [28] > 100 µM | [29] 13.2 µM | [30] > 100 µM | [31] > 100 µM | [32] > 100 µM | [33] 34.8 µM | [34] > 100 µM | [53] 63.2 µM | [35] 22.8 µM | [54] 72.9 µM | [36] > 100 µM | [37] > 100 µM | [55] > 100 µM | [38] > 100 µM | [39] > 100 µM | [40] 20.1 µM | [41] > 100 µM | [42] 61.9 µM | [56] > 100 µM | [43] > 100 µM | [44] 24.8 µM | [45] 28.1 µM | [57] > 100 µM | [46] > 100 µM

CCOC(=O)C1Cc2[nH]c3ccccc3c2C(C)C1C (stereo not given)
16.7 µM: [18]
inactive: [1] 17.7 µM | [47] 17.3 µM | [2] 16.3 µM | [3] 19.4 µM | [4] 17.3 µM | [5] 16.7 µM | [6] 17.1 µM | [48] 8.09 µM | [7] 30 µM | [8] 11.6 µM | [9] 15.6 µM | [10] 10.8 µM | [49] 14.8 µM | [11] 13.5 µM | [12] > 10 µM | [50] 18.9 µM | [14] 18.5 µM | [51] 15.7 µM | [15] 15.8 µM | [16] 22.3 µM | [17] 10.8 µM | [20] 14.6 µM | [21] 19.5 µM | [22] 20.2 µM | [23] 13.7 µM | [52] 17.3 µM | [24] 17.6 µM | [25] 16.5 µM | [26] 3.55 µM | [27] 14.1 µM | [28] 15.1 µM | [29] 12.2 µM | [30] 19.4 µM | [31] 16.7 µM | [32] 17.4 µM | [33] 16.6 µM | [35] 19.7 µM | [54] 19.9 µM | [36] 16 µM | [37] 17 µM | [55] 15.3 µM | [38] 12.8 µM | [41] 16.9 µM | [42] 23.5 µM | [56] 17 µM | [43] 14 µM | [44] 10.8 µM | [45] 16.4 µM | [57] 16.8 µM | [46] 18.4 µM

CCOC(=O)c1ccc(/N=N/c2cc(C(=O)OCC)ccc2O)cc1
inactive: [47] > 100 µM | [2] > 100 µM | [4] > 100 µM | [5] 2.13 µM | [6] > 100 µM | [7] > 100 µM | [10] 20.1 µM | [49] > 100 µM | [11] > 100 µM | [50] > 100 µM | [13] > 100 µM | [14] > 100 µM | [51] > 100 µM | [15] > 100 µM | [16] > 100 µM | [17] > 100 µM | [19] 43.6 µM | [20] 76 µM | [21] > 100 µM | [23] 84.3 µM | [52] > 100 µM | [25] > 100 µM | [26] > 100 µM | [27] > 100 µM | [28] > 100 µM | [29] 41.9 µM | [31] > 100 µM | [32] 68.9 µM | [34] > 100 µM | [53] > 100 µM | [35] > 100 µM | [54] > 100 µM | [55] > 100 µM | [38] > 100 µM | [39] > 100 µM | [40] > 100 µM | [42] > 100 µM | [43] > 100 µM | [58] > 100 µM | [44] 80.7 µM | [45] 46.6 µM | [57] > 100 µM | [46] > 100 µM
> 100 µM: [18]

CNC(=O)NC(CCCCNC(=O)OCc1ccccc1)C(=O)OCc1ccccc1 (stereo not given)
> 96.8 µM: [18]
inactive: [1] > 100 µM | [47] 16.3 µM | [2] 81.8 µM | [3] 60.8 µM | [4] > 100 µM | [5] 15.2 µM | [6] 19.8 µM | [48] 5.69 µM | [7] 38.3 µM | [8] 42.9 µM | [9] 21.1 µM | [59] > 100 µM | [10] 59.8 µM | [49] 34.3 µM | [11] 47.6 µM | [12] 30.5 µM | [60] > 42.9 µM | [50] > 100 µM | [13] 27.9 µM | [14] 65.9 µM | [51] 16.6 µM | [61] 19.5 µM | [15] > 100 µM | [62] 28.1 µM | [16] 28.1 µM | [63] > 100 µM | [64] 19.6 µM | [17] 16.7 µM | [19] > 100 µM | [20] 80.2 µM | [21] 57.3 µM | [22] 17.8 µM | [23] 41.9 µM | [52] > 97.5 µM | [24] 16.9 µM | [25] 30.3 µM | [26] 61.4 µM | [27] > 82 µM | [28] 35.9 µM | [29] 12.6 µM | [30] 33.4 µM | [31] 19.5 µM | [32] 20.3 µM | [33] 19.9 µM | [34] 17 µM | [53] 24.9 µM | [35] 14.7 µM | [54] 33.9 µM | [65] 53 µM | [36] 76.4 µM | [37] > 100 µM | [55] > 100 µM | [38] 47.3 µM | [39] > 100 µM | [40] 26.2 µM | [41] 27 µM | [66] 45.1 µM | [42] 31.3 µM | [56] > 61.4 µM | [67] 79.8 µM | [43] 15.9 µM | [44] 19 µM | [45] 47.6 µM | [57] > 100 µM | [68] > 78.2 µM | [46] 39.5 µM
